Source: US20250195475A1, “CDK2 INHIBITOR AND PREPARATION METHOD AND USE THEREOF” (INVENTISBIO CO., LTD., priority 2022, published 2025)

Target: CDK2/CyclinE1 (Homo sapiens (Human), UniProt P24941)
Experiment: CDK2 kinase assay (TR-FRET)
Type: biochemical
Details: CDK2/CyclinE1 0.5 nM, ATP 50 μM
Description: The purpose of these assays is to evaluate the inhibition of small molecule inhibitors by using TR-FRET assay.
Compound Preparation. Dissslove the compounds into DMSO solution to make 10 mM DMSO stock. Serially dilute the stock solution from highest concentration down to lowest in DMSO to make the compound stock plate (100× stock plates). To make 5× compound intermediate plate, add 38 μL of assay buffer (50 mM HEPES, pH 7.5, 0.05 mg/mL BSA, 10 mM MgCl2, 1 mM EGTA, 0.01% Tween-20, 2 mM DTT) into each well of the V-bottom plate; then transfer 2 μL of the stock compound solution of each concentration from the compound stock plate (100× stock), and mix well.
Enzyme reaction. Transfer 2 μL compound from 5× intermediate plate into assay plate, then add 4 μL/well 2.5× Enzyme mix to assay plate, incubation for 10 min at room temperature. For positive control wells, add 4 μL/well assay buffer instead of Enzyme mix. Then add 4 μL/well 2.5× Substrate mix to assay plate, and incubation at 25° C. for 30 min at room temperature. After reaction, 10 μL 2× Detection mix (final 15 mM EDTA, 1× LANCE Detection Buffer, 0.5 nM Detection antibody) was added and incubated for 1 h prior to detection with excitation and emission at 320 and 665 nm (Tecan Spark® TR-FRET mode Tecan).
Inhibition rate (IR) of the tested compounds was determined by the following formula: IR (%)=(average High control−compound well)/(average High control−average Low control)*100%. Fit the compound IC50 from non-linear regression equation: Y=Bottom+(Top−Bottom)/(1+10^((Log IC50−X)*HillSlope)). X: Log of cpd concentration; Y: Inhibition rate (TR); Top and Bottom: Plateaus in same units as Y, log IC50: same log units as X; HillSlope: Slope factor or Hill slope.

IC50 | SMILES
2 nM | CC(C)NC(=O)O[C@H]1CO[C@@H](c2cc(NC(=O)c3ccnn3CC(F)F)n[nH]2)C1 [Compound 92]
5.2 nM | CC(C)NC(=O)O[C@@H]1CO[C@H](c2cc(NC(=O)c3ccnn3CC(F)F)n[nH]2)C1 [Compound 93]
1.3 nM | Cn1nccc1C(=O)Nc1cc([C@H]2C[C@@H](OC(=O)NC3(C)CC3)CO2)[nH]n1 [Compound 94]
3.7 nM | Cn1nccc1C(=O)Nc1cc([C@@H]2C[C@H](OC(=O)NC3(C)CC3)CO2)[nH]n1 [Compound 95]
0.8 nM | Cn1nccc1C(=O)Nc1cc([C@H]2C[C@@H](OC(=O)NC34CC(C3)C4)CO2)[nH]n1 [Compound 96]
18.8 nM | COCc1cc(C(=O)Nc2cc([C@H]3C[C@@H]4[C@H](C3)[C@H]4C(=O)NC(C)(C)C)[nH]n2)n(C)n1 [Compound 98]
0.8 nM | CC[C@H](C)NC(=O)O[C@H]1CO[C@@H](c2cc(NC(=O)c3ccnn3C)n[nH]2)C1 [Compound 99]
1.5 nM | Cn1nccc1C(=O)Nc1cc([C@H]2C[C@@H](OC(=O)NC(C)(C)C)CO2)[nH]n1 [Compound 101]
10.8 nM | CC(C)NC(=O)O[C@@H]1CO[C@H](c2cc(NC(=O)Cc3ccc4ncn(C)c4c3)n[nH]2)C1 [Compound 103]
17.5 nM | COCc1cc(F)cc(CC(=O)Nc2cc([C@@H]3C[C@H](OC(=O)NC(C)C)CO3)[nH]n2)c1 [Compound 104]
1.1 nM | CC(C)NC(=O)O[C@@H]1CC[C@H](c2cc(NC(=O)[C@H]3C[C@@H]3COC(F)F)n[nH]2)C1 [Compound 105]
1.8 nM | CC(C)NC(=O)O[C@@H]1CC[C@H](c2cc(NC(=O)C34CC(C(F)F)(C3)C4)n[nH]2)C1 [Compound 106]
4.1 nM | CC(C)NC(=O)O[C@H]1CO[C@@H](c2cc(NC(=O)c3cc(C(F)F)nn3C)n[nH]2)C1 [Compound 111]
13.4 nM | CC(C)NC(=O)O[C@@H]1CO[C@H](c2cc(NC(=O)c3cc(C(F)F)nn3C)n[nH]2)C1 [Compound 112]
54.5 nM | CC(C)NC(=O)O[C@@H]1CC[C@H](c2cc(NC(=O)C3[C@H]4COC[C@@H]34)n[nH]2)C1 (stereo partly shown) [Compound 115]
4.5 nM | CC(C)NC(=O)O[C@@H]1CO[C@H](c2cc(NC(=O)Cc3cc(F)cc(C#N)c3)n[nH]2)C1 [Compound 116]
0.4 nM | CC1(NC(=O)O[C@@H]2CC[C@H](c3cc(NC(=O)[C@@H]4CCN(S(C)(=O)=O)C4)n[nH]3)C2)CCC1 [Compound 119]
116 nM | COC[C@@H]1CCN(C(=O)Nc2cc([C@H]3CC[C@@H](OC(=O)NC(C)C)C3)[nH]n2)C1 [Compound 120]
3.2 nM | CC(C)NC(=O)O[C@H]1CO[C@@H](c2cc(NC(=O)Cc3ccc(OCCN4CCCC4)cc3)n[nH]2)C1 [Compound 121]
265 nM | COC[C@H]1CCN(C(=O)Nc2cc([C@H]3CC[C@@H](OC(=O)NC(C)C)C3)[nH]n2)C1 [Compound 123]

IC50 | SMILES
1.2 nM | CS(=O)(=O)N1CC[C@@H](C(=O)Nc2cc([C@H]3CC[C@@H](OC(=O)NC4(C(F)F)CC4)C3)[nH]n2)C1 [Compound 124]
1.3 nM | COC[C@H]1C[C@@H]1C(=O)Nc1cc([C@H]2CC[C@@H](OC(=O)NC34CC(F)(C3)C4)C2)[nH]n1 [Compound 125]
3.6 nM | CC(C)NC(=O)O[C@@H]1CC[C@H](c2cc(NC(=O)[C@@H]3C[C@@H](C)N(S(C)(=O)=O)C3)n[nH]2)C1 [Compound 127]
14.6 nM | CC(C)NC(=O)O[C@@H]1COC(c2cc(NC(=O)Cc3ccc(OCCN4CCCC4)cc3)n[nH]2)C1 (stereo partly shown) [Compound 128]
11.8 nM | Cc1occc1C(=O)Nc1cc([C@H]2C[C@@H](OC(=O)NC(C)C)CO2)[nH]n1 [Compound 129]
7.2 nM | CC(C)NC(=O)O[C@@H]1CO[C@H](c2cc(NC(=O)[C@@H]3CCN(S(=O)(=O)C4CC4)C3)n[nH]2)C1 [Compound 132]
50.1 nM | Cc1occc1C(=O)Nc1cc([C@@H]2C[C@H](OC(=O)NC(C)C)CO2)[nH]n1 [Compound 133]
2.2 nM | CC(C)NC(=O)O[C@H]1CO[C@@H](c2cc(NC(=O)Cc3ccccc3S(C)(=O)=O)n[nH]2)C1 [Compound 134]
13.5 nM | CC(C)NC(=O)O[C@@H]1CO[C@H](c2cc(NC(=O)Cc3ccccc3S(C)(=O)=O)n[nH]2)C1 [Compound 135]
1 nM | Cn1nccc1C(=O)Nc1cc([C@H]2C[C@@H](OC(=O)NC3(C)CCC3)CO2)[nH]n1 [Compound 138]
0.7 nM | CC1(NC(=O)O[C@@H]2CC[C@H](c3cc(NC(=O)[C@@H]4CCN(S(=O)(=O)C5CC5)C4)n[nH]3)C2)CCC1 [Compound 139]
0.7 nM | CC1(NC(=O)O[C@@H]2CC[C@H](c3cc(NC(=O)[C@@H]4CCN(S(=O)(=O)C5CC5)C4)n[nH]3)C2)CC1 [Compound 140]
0.5 nM | C#C[C@H]1C[C@@H]1C(=O)Nc1cc([C@H]2CC[C@@H](OC(=O)NC3(C)CC3)C2)[nH]n1 [Compound 141]
1.6 nM | COC[C@H]1C[C@@H]1C(=O)Nc1cc([C@H]2CC[C@@H](OC(=O)NC34CC(C(F)F)(C3)C4)C2)[nH]n1 [Compound 142]
0.9 nM | C#C[C@H]1C[C@@H]1C(=O)Nc1cc([C@@H]2CC[C@H](OC(=O)NC(C)C)C2)[nH]n1 [Compound 145]
4.8 nM | CC(C)NC(=O)O[C@@H]1CC[C@H](c2cc(NC(=O)C3CC3OCC(F)F)n[nH]2)C1 (stereo partly shown) [Compound 147]
4.5 nM | C#C[C@H]1C[C@@H]1C(=O)Nc1cc([C@H]2C[C@@H](OC(=O)N[C@@H](C)CC)CO2)[nH]n1 [Compound 155]
6 nM | C#C[C@H]1C[C@@H]1C(=O)Nc1cc([C@@H]2C[C@H](OC(=O)N[C@@H](C)CC)CO2)[nH]n1 [Compound 156]
2.9 nM | C#C[C@H]1C[C@@H]1C(=O)Nc1cc([C@@H]2C[C@H](OC(=O)NC3(C)CC3)CO2)[nH]n1 [Compound 157]
1.1 nM | C#C[C@H]1C[C@@H]1C(=O)Nc1cc([C@H]2C[C@@H](OC(=O)NC3(C)CCC3)CO2)[nH]n1 [Compound 158]

IC50 | SMILES
1.6 nM | Cn1nccc1C(=O)Nc1cc([C@H]2C[C@@H](OC(=O)NC34CC(F)(C3)C4)CO2)[nH]n1 [Compound 159]
5.3 nM | Cn1nccc1C(=O)Nc1cc([C@@H]2C[C@H](OC(=O)NC34CC(F)(C3)C4)CO2)[nH]n1 [Compound 160]
1 nM | CC(C)NC(=O)O[C@@H]1CC[C@H](c2cc(NC(=O)[C@H]3C[C@@H]3C#CC(F)F)n[nH]2)C1 [Compound 161]
109 nM | Cc1c(C2CC2C(=O)Nc2cc([C@H]3CC[C@@H](OC(=O)NC(C)C)C3)[nH]n2)cnn1C (stereo partly shown) [Compound 162]
1.5 nM | C#C[C@H]1C[C@@H]1C(=O)Nc1cc([C@H]2C[C@@H](OC(=O)NC(C)C)CO2)[nH]n1 [Compound 164]
4.7 nM | C#C[C@H]1C[C@@H]1C(=O)Nc1cc([C@@H]2C[C@H](OC(=O)NC(C)C)CO2)[nH]n1 [Compound 165]
0.9 nM | C#C[C@H]1C[C@@H]1C(=O)Nc1cc([C@H]2C[C@@H](OC(=O)NC(C)(C)C)CO2)[nH]n1 [Compound 166]
1.4 nM | C#C[C@H]1C[C@@H]1C(=O)Nc1cc([C@@H]2C[C@H](OC(=O)NC(C)(C)C)CO2)[nH]n1 [Compound 167]
0.6 nM | C#C[C@H]1C[C@@H]1C(=O)Nc1cc([C@H]2C[C@@H](OC(=O)NC(C)(C)CC)CO2)[nH]n1 [Compound 168]
1.9 nM | C#C[C@H]1C[C@@H]1C(=O)Nc1cc([C@@H]2C[C@H](OC(=O)NC(C)(C)CC)CO2)[nH]n1 [Compound 169]
0.8 nM | C#C[C@H]1C[C@@H]1C(=O)Nc1cc([C@H]2C[C@@H](OC(=O)NC3(C)CC3)CO2)[nH]n1 [Compound 170]
1.3 nM | C#C[C@H]1C[C@@H]1C(=O)Nc1cc([C@@H]2C[C@H](OC(=O)NC3(C)CCC3)CO2)[nH]n1 [Compound 171]
1.2 nM | CC(C)NC(=O)O[C@@H]1CC[C@H](c2cc(NC(=O)C3CN(S(=O)(=O)C4CC4)CC3C)n[nH]2)C1 (stereo partly shown) [Compound 172]
61.1 nM | CC(C)NC(=O)O[C@@H]1CC[C@H](c2cc(NC(=O)C3CC34CCOC4)n[nH]2)C1 (stereo partly shown) [Compound 174]
174 nM | CC(C)NC(=O)O[C@@H]1CC[C@H](c2cc(NC(=O)C3CC34CCOC4)n[nH]2)C1 (stereo partly shown) [Compound 175]
33 nM | CC(C)NC(=O)O[C@@H]1CC[C@H](c2cc(NC(=O)C3CC34CCOC4)n[nH]2)C1 (stereo partly shown) [Compound 176]
1 nM | CC#C[C@H]1C[C@@H]1C(=O)Nc1cc([C@H]2CC[C@@H](OC(=O)NC(C)C)C2)[nH]n1 [Compound 177]
1.4 nM | CCC1(NC(=O)O[C@@H]2CO[C@H](c3cc(NC(=O)c4ccnn4C)n[nH]3)C2)CCC1 [Compound 178]
12.6 nM | CC(C)NC(=O)O[C@@H]1CC[C@H](c2cc(NC(=O)[C@@H]3C[C@@H](C(C)C)N(S(C)(=O)=O)C3)n[nH]2)C1 [Compound 179]
4 nM | C#C[C@H]1C[C@@H]1C(=O)Nc1cc([C@H]2C[C@@H](OC(=O)NC3(C)COC3)CO2)[nH]n1 [Compound 182]

SMILES | IC50
CC(C)NC(=O)O[C@@H]1CC[C@H](C2=CC(NC(=O)[C@H]3C[C@@H]3[C@@H](C)O)=NC2)C1 [Compound 137] | 5.3 nM
